Assay results taken from patent publication US20220259593A1, “CONTROL OF MAMMALIAN GENE DOSAGE USING CRISPR” (The Regents of the University of California, priority 2019, published 2022).
Changes are numbered by the printed parent chain.

Columns and labels:
[1] = tested on: K562 CRISPRi cells; assay: Perturb-seq pooled growth measurement (sgRNA counts, growth phenotype γ, relative activity); type: cell-based, human; settings: sequencing read counts; for Perturb-seq pooled growth sgRNA counts, d5: 5 days of growth (day seven after transduction); for Perturb-seq pooled growth sgRNA counts, d10: 10 days of growth (day twelve after transduction); for Perturb-seq pooled growth sgRNA counts, T0: T0 = day two after transduction
Source text: Finally, we sought to use intermediate-activity sgRNAs to explore relationships between expression levels of various genes and the resulting cellular phenotypes. To simultaneously measure gene expression levels and obtain rich phenotypes for a variety of sgRNA series, we used Perturb-seq, an experimental strategy that enables matched capture of the transcriptome and the identity of an expressed sgRNA for each individual cell in pools of cells (27, 31-33) (FIG. 12A). […] In addition to the single-cell transcriptomes, we measured bulk growth phenotypes conferred by sgRNAs in these cells.
To measure the growth rate defects conferred by each sgRNA for comparison with the transcriptional phenotypes, samples of 500,000 transduced cells were taken from the same transduced cell population used in the Perturb-seq experiment on days two, seven, and twelve after transduction. Genomic DNA was extracted using the Nucleospin Blood kit (Macherey-Nagel) and sgRNA amplicons were prepared as described previously and above (19), albeit with no genomic DNA digestion or gel purification, and sequenced on HiSeq 4000 as described above for the other screens. Growth phenotypes were calculated by comparing normalized sgRNA abundances at day seven and twelve to those at day two, as described above. […] Relative sgRNA activities measured at day seven (five days of growth) were used to assign sgRNA activities in further analysis.

[2] = tested on: K562 CRISPRi cells; assay: Constant region variant library pooled growth screen, K562; type: cell-based, human; settings: sgRNA constant region variants
How it was run: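 Pooled library transduced into K562 CRISPRi cells in duplicate, puromycin-selected, grown at >2000× coverage and sampled after 4 to 8 days. Phenotypes per targeting sequence:constant region pair were normalized to the unmodified-scaffold pairing to give relative activity.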

[3] = activity relative to the original, un-modified constant region cr995
[4] = activity relative to the un-modified constant region cr995

ALDOA_+_30077139.23-P1P2_00: sgRNA targeting ALDOA, GGTCACCAGGACCCCTTCTG, SEQ ID NO: 156 (listed as DNA, chemistry not fully specified)
Perturb-seq pooled growth sgRNA counts, d5 [1]: 4056 | Perturb-seq pooled growth sgRNA counts, d10 [1]: 2781 | Perturb-seq pooled growth sgRNA counts, T0 [1]: 5280

ALDOA_+_30077139.23-P1P2_06: sgRNA targeting ALDOA, GGTCACCAGGATCCCTTCTG, SEQ ID NO: 157 (listed as DNA, chemistry not fully specified)
Perturb-seq pooled growth sgRNA counts, d5 [1]: 4831 | Perturb-seq pooled growth sgRNA counts, d10 [1]: 3500 | Perturb-seq pooled growth sgRNA counts, T0 [1]: 6015

ALDOA_+_30077139.23-P1P2_07: sgRNA targeting ALDOA, GGTCACCAGGCCCCCTTCTG, SEQ ID NO: 158 (listed as DNA, chemistry not fully specified)
Perturb-seq pooled growth sgRNA counts, d5 [1]: 4284 | Perturb-seq pooled growth sgRNA counts, d10 [1]: 3028 | Perturb-seq pooled growth sgRNA counts, T0 [1]: 4830

ALDOA_+_30077139.23-P1P2_13: sgRNA targeting ALDOA, GGTCACCAGGACCCCTTTTG, SEQ ID NO: 160 (listed as DNA, chemistry not fully specified)
Perturb-seq pooled growth sgRNA counts, d5 [1]: 16944 | Perturb-seq pooled growth sgRNA counts, d10 [1]: 26890 | Perturb-seq pooled growth sgRNA counts, T0 [1]: 6699

ALDOA_+_30077139.23-P1P2_14: sgRNA targeting ALDOA, GGTCACCAGGACCGCTTCTG, SEQ ID NO: 159 (listed as DNA, chemistry not fully specified)
Perturb-seq pooled growth sgRNA counts, d5 [1]: 5347 | Perturb-seq pooled growth sgRNA counts, d10 [1]: 6076 | Perturb-seq pooled growth sgRNA counts, T0 [1]: 3603

ATP5E_−_57607036.23-P1P2_00: sgRNA targeting ATP5E, GGTGTCCAGGGGCACTCTGT, SEQ ID NO: 151 (listed as DNA, chemistry not fully specified)
Perturb-seq pooled growth sgRNA counts, d5 [1]: 12109 | Perturb-seq pooled growth sgRNA counts, d10 [1]: 9475 | Perturb-seq pooled growth sgRNA counts, T0 [1]: 8197

ATP5E_−_57607036.23-P1P2_01: sgRNA targeting ATP5E, GGTGTCCTGGGGCACTCTGT, SEQ ID NO: 152 (listed as DNA, chemistry not fully specified)
Perturb-seq pooled growth sgRNA counts, d5 [1]: 10487 | Perturb-seq pooled growth sgRNA counts, d10 [1]: 8806 | Perturb-seq pooled growth sgRNA counts, T0 [1]: 7774

ATP5E_−_57607036.23-P1P2_04: sgRNA targeting ATP5E, GGTGTCCAGGAGCACTCTGT, SEQ ID NO: 154 (listed as DNA, chemistry not fully specified)
Perturb-seq pooled growth sgRNA counts, d5 [1]: 13256 | Perturb-seq pooled growth sgRNA counts, d10 [1]: 14860 | Perturb-seq pooled growth sgRNA counts, T0 [1]: 7209

ATP5E_−_57607036.23-P1P2_14: sgRNA targeting ATP5E, GGTGTCCAGGGGCACTGTGT, SEQ ID NO: 155 (listed as DNA, chemistry not fully specified)
Perturb-seq pooled growth sgRNA counts, d5 [1]: 10750 | Perturb-seq pooled growth sgRNA counts, d10 [1]: 15257 | Perturb-seq pooled growth sgRNA counts, T0 [1]: 4611

ATP5E_−_57607036.23-P1P2_16: sgRNA targeting ATP5E, GGTGTCCAGGGGCGCTCTGT, SEQ ID NO: 153 (listed as DNA, chemistry not fully specified)
Perturb-seq pooled growth sgRNA counts, d5 [1]: 9571 | Perturb-seq pooled growth sgRNA counts, d10 [1]: 9964 | Perturb-seq pooled growth sgRNA counts, T0 [1]: 6210

BCR_+_23523092.23-P1P2_00: sgRNA targeting BCR, GCGCGCGGGGCCCGTCTCAG, SEQ ID NO: 125 (listed as DNA, chemistry not fully specified)
Perturb-seq pooled growth sgRNA counts, d5 [1]: 2250 | Perturb-seq pooled growth sgRNA counts, d10 [1]: 2333 | Perturb-seq pooled growth sgRNA counts, T0 [1]: 9644

BCR_+_23523092.23-P1P2_04: sgRNA targeting BCR, GCGCGCGGAGCCCGTCTCAG, SEQ ID NO: 127 (listed as DNA, chemistry not fully specified)
Perturb-seq pooled growth sgRNA counts, d5 [1]: 1660 | Perturb-seq pooled growth sgRNA counts, d10 [1]: 2119 | Perturb-seq pooled growth sgRNA counts, T0 [1]: 5355

B1: cr944 (nucleic acid)
guide: GTTTAAGAGCTAAGCTGGAAACAGCATAGCAAGTTTAAATAAGGCTAGTCCGTTATCAACTCGAAAGAGTGGTACCAAGTTGGTACT
modifications: listed as DNA, chemistry not fully specified
Mean relative activity [2, 3]: 1.065

B2: cr131 (nucleic acid)
guide: B1 guide with C62T, A65G, G67A, T73C, C76A, A77G, T81C, G82T, A85G
modifications: chemistry not given here
Mean relative activity [2, 4]: 0.96

B3: cr938 (nucleic acid)
guide: B1 guide with A47G, C62T, G67A, T73C, A77G, T81C, A85G
modifications: listed as DNA, chemistry not fully specified
Mean relative activity [2, 4]: 0.9596

B4: cr416 (nucleic acid)
guide: B1 guide with C62T, G67A, T73C, A74G, T84C, A85G
modifications: listed as DNA, chemistry not fully specified
Mean relative activity [2, 4]: 0.9574

B5: cr267 (nucleic acid)
guide: B1 guide with G18C, C62T, G67A, T73C, A77G, T81C, A85G
modifications: listed as DNA, chemistry not fully specified
Mean relative activity [2, 4]: 0.9552

B6: cr372 (nucleic acid)
guide: B1 guide with T46G, C62T, G67A, T73C, A77G, T81C, A85G
modifications: listed as DNA, chemistry not fully specified
Mean relative activity [2, 4]: 0.9545

B7: cr167 (nucleic acid)
guide: B1 guide with T61C, C62T, G67A, T73C, A77G, T81C, A85G
modifications: listed as DNA, chemistry not fully specified
Mean relative activity [2, 4]: 0.9545

B8: cr205 (nucleic acid)
guide: B1 guide with C60T, C62T, G67A, G69A, T73G, A77G, T81C, A85C
modifications: listed as DNA, chemistry not fully specified
Mean relative activity [2, 4]: 0.9515

B9: cr835 (nucleic acid)
guide: B1 guide with C62T, G67A, T73C, A77G, T81C, T84C, A85G
modifications: listed as DNA, chemistry not fully specified
Mean relative activity [2, 4]: 0.9515

B10: cr264 (nucleic acid)
guide: B1 guide with C62T, G67A, A68T, T73C, A77G, T81C, A85G
modifications: listed as DNA, chemistry not fully specified
Mean relative activity [2, 4]: 0.9513

B11: cr397 (nucleic acid)
guide: B1 guide with C60A, C62T, G67A, G69T, T73C, A77G, T81C, A85G
modifications: listed as DNA, chemistry not fully specified
Mean relative activity [2, 4]: 0.9508

B12: cr181 (nucleic acid)
guide: GTTTAAGAGCTAAGCTGGAAACAGCATAGCAAGTTTAAATAAGGTTAATCCGTTATCAATTTGAAAAAATGGCGCCGAGTCGGCGCT
modifications: listed as DNA, chemistry not fully specified
Mean relative activity [2, 4]: 0.9506

B13: cr748 (nucleic acid)
guide: B1 guide with A65G, T73C, A77G, T81C, A85G
modifications: listed as DNA, chemistry not fully specified
Mean relative activity [2, 3]: 1.146
